Values of other authors in US10398673B2, “Mast cell stabilizers treatment for systemic disorders” (Respivant Sciences GmbH, priority 2014, dated 2019).

O=C(O)c1cc(=O)c2c(OCC(O)COc3cccc4oc(C(=O)O)cc(=O)c34)cccc2o1 [cromolyn sodium]
oral bioavailability: less than 1%
